In patent publication US20210205292A1, “INHIBITORS OF CREB-CBP INTERACTION FOR TREATMENT OF LEUKEMIA” (The Board of Trustees of the Leland Stanford Junior …, priority 2016, published 2021):
Entries after “also recorded” stand apart in the source; their conditions may differ.

Key:
CREB/CBP association = biological target: T1, CREB/CBP association (Homo sapiens, UniProt Q92793); assay: Anti-CBP immunoprecipitation of CREB-transfected HEK293 cells; type: cell-based; conditions: HEK293 lysates or cells, 5 μM, 1 hour
T1 construct: endogenous in cells; host or cells: HEK293 cells (CBP endogenous; CREB from a transfected plasmid)
Method: Mutation of Arginine-600 to Alanine reduced binding of Compound A by ˜45% at a concentration of 5 μM, while a KIX mutant lacking amino acids 586-602 reduced binding by ˜70%. Panel C) Binding model of Compound A to CBP KIX domain. […] Panel E). Two KG-1 cell lines were generated in which luciferase was expressed either under the control of a CREB-driven promoter (CRE) or a CMV-driven promoter (CMV). These two cell lines were each treated with a range of Compound A or Analog B concentrations for 6 hours. […] HEK293 cells were transfected with a plasmid expressing CREB. Cells were treated with Compound A (A, 5 μM, lane 3) or DMSO vehicle (D) for 1 hour. Total lysates of transfected HEK293 cells were immunoprecipitated using anti-CBP antibody. Compound A (A, 5 μM) was added during anti-CBP Immunoprecipation process (lane 1). Immunoprecipitates (CBP-IP) and total lysates were analyzed by immunoblotting for phospho-CREB (p-CREB) and CBP.
To test the ability of Compound A to disrupt CREB-CBP binding in cells, a split Renilla luciferase complementation assay was performed. […] This early timepoint was selected to permit accurate reporter gene activity measurement prior to the onset of anticipated global cell dysfunction or death induced by Compound A. Treatment with 3 μM Compound A reduced luciferase activity by 33.2±7.7% at this timepoint. […]

[1] = tested on: H3K27 acetylation at CREB-bound genes; assay: Whole-genomic H3K27 histone acetylation analysis in KG-1 cells; type: cell-based; conditions: 5 μM
CREB genomic binding = assay: CREB ChIP-Seq in KG-1 cells; type: cell-based; conditions: 5 μM, 6 hours
Method: For Chip-Seq experiments, KG-1 cells were treated with 5 μM Compound A or DMSO for 6 hours. Cells were cross-linked with 1% formaldehyde at room temperature for 10 min and then incubated with […] for 5 min. After cross-linking, chromatin was digested by Micrococcal nuclease and then sonicated using SimpleChIP® Plus Enzymatic Chromatin IP Kit (Cell Signaling, Danvers, Mass.) following the manufacturer's protocol. Chromatin immunoprecipitations were carried out with anti-CREB antibody (Millipore, Billerica, Mass.) or a control IgG (Santa Cruz Biotechnology). The captured immunocomplexes containing bound transcriptional DNA fragments were eluted, with recovered DNA fragments used for PCR amplification. For RNA-Seq experiments, KG-1 cells were treated with Compound A (5 μM) or 0.1% DMSO for 12 hours. RNA was prepared using the Aurum Total RNA Mini Kit (Bio-Rad). Sample libraries were run using the Illumina sequencing platform. Two hundred million reads were collected on two biological replicates of the experiment. […]
To determine the functional specificity and downstream effects of Compound A in AML, the CREB transcriptome was first defined in KG-1 cells using CREB chromatin immunoprecipitation followed by high-throughput sequencing (CREB ChIP-Se). […] In this way, the ‘on-target’ effects of Compound A could be assessed.

[2] = tested on: primary AML patient bone marrow samples; assay: Single cell mass cytometry (CyTOF) of primary AML patient samples; type: cell-based, human
Method: These were stained for viability using cisplatin. Cells were fixed with 1.6% PFA (Electron Microscopy Sciences) for 10 min and washed with cell staining media (CSM). Fc receptor block was performed using Human TruStain FcX (Biolegend) following manufacturer's instructions. Cells were stained for surface proteins at room temperature for 30 min. Following staining, cells were washed twice with CSM and permeabilized with methanol pre-cooled to 4° C. for 10 min. Cells were then washed twice and stained for intracellular proteins for 30 min at room temperature. Surface and intracellular staining cocktails are listed in supplementary methods. Cells were washed and stained with 1 mL of 2000× iridium DNA intercalator (diluted 1:5000 in PBS with 1.6% PFA; DVS Sciences) overnight at 4° C. Data were acquired using internal metal isotope bead standards as previously described (Finck et al., “Normalization of mass cytometry data with bead standards.” Cytometry A. 2013; 83(5):483-94). Cell events were acquired at approximately 500 events per second on a CyTOF I (DVS Sciences/Fluidigm). All antibodies were also purchased from DVS Sciences/Fluidigm. Each patient sample was individually normalized to the internal bead standards prior to analysis. […]

T1 sequence (Q92793 whole entry): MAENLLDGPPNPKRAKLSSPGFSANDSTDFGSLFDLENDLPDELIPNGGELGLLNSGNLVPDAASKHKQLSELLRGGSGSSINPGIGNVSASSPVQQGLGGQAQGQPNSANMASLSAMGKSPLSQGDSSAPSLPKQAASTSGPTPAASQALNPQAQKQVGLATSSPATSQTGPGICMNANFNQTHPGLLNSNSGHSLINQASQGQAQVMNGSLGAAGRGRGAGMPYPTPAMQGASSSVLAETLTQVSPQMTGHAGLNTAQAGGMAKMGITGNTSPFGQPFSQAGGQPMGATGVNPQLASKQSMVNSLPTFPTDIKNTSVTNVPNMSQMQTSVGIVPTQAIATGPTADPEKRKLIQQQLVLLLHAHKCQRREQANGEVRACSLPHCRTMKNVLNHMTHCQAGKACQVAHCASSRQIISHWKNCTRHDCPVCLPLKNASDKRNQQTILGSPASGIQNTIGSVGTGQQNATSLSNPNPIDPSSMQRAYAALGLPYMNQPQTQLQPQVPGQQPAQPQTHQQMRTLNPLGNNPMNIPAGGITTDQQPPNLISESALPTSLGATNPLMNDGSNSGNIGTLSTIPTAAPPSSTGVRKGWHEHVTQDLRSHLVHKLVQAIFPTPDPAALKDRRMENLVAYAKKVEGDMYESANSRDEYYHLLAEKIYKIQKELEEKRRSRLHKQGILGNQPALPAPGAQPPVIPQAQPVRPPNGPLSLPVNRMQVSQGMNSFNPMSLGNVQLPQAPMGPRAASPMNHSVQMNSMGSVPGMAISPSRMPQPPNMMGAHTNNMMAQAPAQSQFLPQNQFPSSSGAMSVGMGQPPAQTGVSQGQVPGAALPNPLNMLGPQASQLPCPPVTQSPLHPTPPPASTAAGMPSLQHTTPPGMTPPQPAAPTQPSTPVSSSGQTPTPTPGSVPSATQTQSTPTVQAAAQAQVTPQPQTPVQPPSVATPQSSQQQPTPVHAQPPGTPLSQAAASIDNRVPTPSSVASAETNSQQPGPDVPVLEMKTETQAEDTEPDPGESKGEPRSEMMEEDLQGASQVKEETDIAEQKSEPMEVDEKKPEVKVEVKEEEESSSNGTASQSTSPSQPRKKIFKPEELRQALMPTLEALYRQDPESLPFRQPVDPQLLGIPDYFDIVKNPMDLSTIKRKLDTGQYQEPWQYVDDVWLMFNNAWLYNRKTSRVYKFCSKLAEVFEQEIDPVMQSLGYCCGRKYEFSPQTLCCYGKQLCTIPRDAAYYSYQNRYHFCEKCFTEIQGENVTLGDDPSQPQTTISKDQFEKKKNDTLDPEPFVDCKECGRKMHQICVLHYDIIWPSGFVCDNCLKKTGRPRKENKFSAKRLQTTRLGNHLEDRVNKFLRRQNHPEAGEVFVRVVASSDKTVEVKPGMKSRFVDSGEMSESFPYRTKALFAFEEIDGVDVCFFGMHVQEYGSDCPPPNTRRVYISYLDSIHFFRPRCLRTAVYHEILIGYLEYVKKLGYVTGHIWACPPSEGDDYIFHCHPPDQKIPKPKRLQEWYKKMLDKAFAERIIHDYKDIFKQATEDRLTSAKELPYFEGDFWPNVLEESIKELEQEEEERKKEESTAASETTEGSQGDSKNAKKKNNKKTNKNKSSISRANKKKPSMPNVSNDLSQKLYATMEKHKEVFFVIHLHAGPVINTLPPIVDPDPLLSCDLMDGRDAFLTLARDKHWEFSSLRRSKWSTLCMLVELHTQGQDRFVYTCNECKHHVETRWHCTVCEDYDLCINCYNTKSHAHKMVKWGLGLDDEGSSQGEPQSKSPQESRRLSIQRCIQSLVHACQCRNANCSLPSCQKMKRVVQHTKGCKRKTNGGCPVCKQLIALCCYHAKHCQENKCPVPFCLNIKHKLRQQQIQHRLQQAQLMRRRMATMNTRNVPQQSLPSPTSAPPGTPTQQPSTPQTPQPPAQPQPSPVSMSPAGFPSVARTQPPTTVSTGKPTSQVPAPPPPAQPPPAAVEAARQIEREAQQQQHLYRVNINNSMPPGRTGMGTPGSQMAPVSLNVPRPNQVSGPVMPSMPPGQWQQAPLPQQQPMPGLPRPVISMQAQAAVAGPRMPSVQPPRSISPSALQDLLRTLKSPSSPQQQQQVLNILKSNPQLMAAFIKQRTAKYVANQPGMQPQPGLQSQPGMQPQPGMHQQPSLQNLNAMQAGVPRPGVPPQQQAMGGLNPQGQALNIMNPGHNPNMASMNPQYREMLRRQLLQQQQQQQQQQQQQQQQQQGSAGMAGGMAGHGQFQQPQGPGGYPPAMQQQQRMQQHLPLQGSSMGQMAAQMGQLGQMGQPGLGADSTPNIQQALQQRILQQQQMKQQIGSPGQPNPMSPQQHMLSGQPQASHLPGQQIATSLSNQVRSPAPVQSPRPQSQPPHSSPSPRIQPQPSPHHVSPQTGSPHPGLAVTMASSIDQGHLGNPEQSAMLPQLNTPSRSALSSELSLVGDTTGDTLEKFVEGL

**Q.** `N#Cc1ccc(NC(=O)c2cc3ccccc3cc2O)cc1` [Compound A, N-(4-cyanophenyl)-3-hydroxy-2-naphthamide] was tested. Which “binding of CREB to CBP (immunoprecipitation)” value (CREB/CBP association) did it give?
**A.** The value was “inhibits CREB/CBP association; also recorded: prevented binding of CREB to CBP”.

**Q.** And the “CREB-bound genes with decreased H3K27 histone acetylation” value [1]?
**A.** The value was “Greater than 95%”.

**Q.** And the CREB genomic binding (CREB genomic binding)?
**A.** The CREB genomic binding was “did not change”.

**Q.** What about the “cells in S-phase (CyTOF)” value ([2]; patient sample 97, CD34+CD38− subpopulation) of the same compound?
**A.** Its value is < 0.1 % of total.

**Q.** What about the “Bcl-2 expression (CyTOF)” value ([2]; patient samples 96 and 186, all cell subpopulations, 2 µM, 48 hours) of the same compound?
**A.** The value was “reduced Bcl-2 expression”.
